Source: patent US20230365584A1, “HETEROCYCLIC PERICONDENSED CDC7 KINASE INHIBITORS FOR THE TREATMENT OF CANCER” (SCHRÖDINGER, INC., priority 2020, published 2023)
Where a name gives a salt, the structure may show the parent alone.

Biological target: Full length human CDC7 protein co-expressed with DBF4 (Homo sapiens (Human), UniProt O00311)
Test: CDC7 kinase biochemical assay (ADP-Glo, PDKtide substrate)
Conditions: 0.1 nM CDC7/DBF4, 1 uM ATP, 10 uM PDKtide, 4 h
Method: CDC7 Kinase Biochemical Assay Protocol:
Full length human CDC7 protein co-expressed with DBF4 was purchased from SignalChem (China). CDC7 kinase activity was determined with PDKtide (SignalChem) as a substrate and by measuring ADP production using the ADP-Glo™ Kinase Assay kit (Promega) following the manufacturers instructions. The kinase reaction was performed using the following conditions: Buffer: 40 mM Tris pH 7.5, 20 mM MgCl2, 0.1 mg/ml BSA and 50 uM DTT. Final reaction mix contained 0.1 nM CDC7/DBF4, 1 uM ATP and 10 uM PDKtide. The kinase reaction time was 4 h. The ADP-Glo signal was measured using an EnVision plate reader (PerkinELmer).
Percent inhibition of CDC7 kinase activity was calculated based on the following formula:
[formula] • Ssample: the signal of compounds • SHigh Ctrl: the signal of high control (DMSO) • SLow Ctrl: the signal of low control (positive control CDC7 inhibitor)

Sequence of Full length human CDC7 protein co-expressed with DBF4 (O00311 whole entry): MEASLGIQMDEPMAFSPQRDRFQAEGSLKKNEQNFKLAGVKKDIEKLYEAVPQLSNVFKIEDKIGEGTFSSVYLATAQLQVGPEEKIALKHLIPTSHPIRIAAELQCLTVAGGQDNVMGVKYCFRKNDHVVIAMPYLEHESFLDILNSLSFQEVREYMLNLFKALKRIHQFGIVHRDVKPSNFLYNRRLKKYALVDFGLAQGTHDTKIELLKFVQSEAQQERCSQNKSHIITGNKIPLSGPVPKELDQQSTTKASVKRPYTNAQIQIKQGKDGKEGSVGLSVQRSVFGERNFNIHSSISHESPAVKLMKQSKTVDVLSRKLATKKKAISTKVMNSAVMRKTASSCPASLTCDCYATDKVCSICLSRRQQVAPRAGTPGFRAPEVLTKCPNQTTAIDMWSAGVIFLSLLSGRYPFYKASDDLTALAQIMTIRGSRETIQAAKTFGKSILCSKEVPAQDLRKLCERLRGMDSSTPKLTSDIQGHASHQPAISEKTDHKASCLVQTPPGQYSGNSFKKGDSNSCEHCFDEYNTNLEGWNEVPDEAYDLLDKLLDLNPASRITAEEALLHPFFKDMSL
Sequence of Full length human CDC7 protein co-expressed with DBF4 (Q9UBU7 whole entry partner): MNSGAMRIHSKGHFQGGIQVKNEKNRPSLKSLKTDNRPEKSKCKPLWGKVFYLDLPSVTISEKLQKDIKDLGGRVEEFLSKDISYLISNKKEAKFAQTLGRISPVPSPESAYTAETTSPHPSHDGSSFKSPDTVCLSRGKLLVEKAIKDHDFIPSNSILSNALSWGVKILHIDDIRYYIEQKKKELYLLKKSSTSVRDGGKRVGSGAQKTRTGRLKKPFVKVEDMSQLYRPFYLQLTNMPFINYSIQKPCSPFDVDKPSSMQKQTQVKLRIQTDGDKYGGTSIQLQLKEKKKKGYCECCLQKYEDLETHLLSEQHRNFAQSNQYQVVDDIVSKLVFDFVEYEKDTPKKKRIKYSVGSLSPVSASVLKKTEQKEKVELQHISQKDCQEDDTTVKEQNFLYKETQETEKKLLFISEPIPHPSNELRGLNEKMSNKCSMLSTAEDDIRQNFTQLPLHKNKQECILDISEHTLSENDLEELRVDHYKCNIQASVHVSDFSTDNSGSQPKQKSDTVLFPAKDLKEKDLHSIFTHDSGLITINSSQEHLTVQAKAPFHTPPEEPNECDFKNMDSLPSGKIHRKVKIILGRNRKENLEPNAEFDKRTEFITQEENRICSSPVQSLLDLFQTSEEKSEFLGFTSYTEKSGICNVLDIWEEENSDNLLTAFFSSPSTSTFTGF

Q: How did the IC50 turn out when `CC[C@](C)(O)c1[nH]c(=O)c2sc(-c3c[nH]nc3C)c3c2c1CCCO3` (single isomer, unassigned) [Example 73] was run?
A: ≥ 10 nM

Q: With `CC[C@@](C)(O)c1[nH]c(=O)c2sc(-c3c[nH]nc3C)c3c2c1CCCO3` (single isomer, unassigned) [Example 74] as the compound, how does the IC50 read?
A: ≥ 10 nM

Q: With `C[C@H]1Cc2c(CN3CC(O)C3)[nH]c(=O)c3sc(-c4cn[nH]c4)c(c23)O1` (single isomer, unassigned) [Example 79] as the compound, how does the IC50 read?
A: < 1 nM

Q: `C[C@@H]1Cc2c(CN3CC(O)C3)[nH]c(=O)c3sc(-c4cn[nH]c4)c(c23)O1` (single isomer, unassigned) [Example 80] was tested. Which IC50 did it give?
A: < 1 nM

Q: With `C[C@@H]1Cc2c(CN3CC[C@H]3C)[nH]c(=O)c3sc(-c4cn[nH]c4)c(c23)O1` (single isomer, unassigned) [Example 81] as the compound, how does the IC50 read?
A: < 1 nM

Q: For `C[C@@H]1Cc2c(CN3CC[C@@H]3C)[nH]c(=O)c3sc(-c4cn[nH]c4)c(c23)O1` (single isomer, unassigned) [Example 82], which IC50 is on record?
A: < 1 nM

Q: How did the IC50 turn out when `C[C@H]1Cc2c(CN3CC[C@@H]3C)[nH]c(=O)c3sc(-c4cn[nH]c4)c(c23)O1` (single isomer, unassigned) [Example 83] was run?
A: < 1 nM

Q: Which IC50 does the source give for `C[C@@H]1CCN1Cc1[nH]c(=O)c2sc(-c3cn[nH]c3)c3c2c1C[C@H](C)O3` (single isomer, unassigned) [Example 84] here?
A: < 1 nM

Q: How did the IC50 turn out when `CC1Cc2c(CN3CC(F)C3)[nH]c(=O)c3sc(-c4cn[nH]c4)c(c23)O1` (stereo in doubt) [Example 67, (R)-6-((3-fluoroazetidin-1-yl)methyl)-4-methyl-2-(1H-pyrazol-4-yl)-5,7-dihydro-3-oxa-1-thia-7-azaacenaphthylen-8(4H)-one] was run?
A: < 1 nM

Q: Which IC50 does the source give for `CC1Cc2c(CN3CC(F)C3)[nH]c(=O)c3sc(-c4cn[nH]c4)c(c23)O1` (stereo in doubt) [Example 68, (S)-6-((3-fluoroazetidin-1-yl)methyl)-4-methyl-2-(1H-pyrazol-4-yl)-5,7-dihydro-3-oxa-1-thia-7-azaacenaphthylen-8(4H)-one] here?
A: < 1 nM

Q: Which IC50 does the source give for `CC1Cc2c(CN3CC[C@H](F)C3)[nH]c(=O)c3sc(-c4cn[nH]c4)c(c23)O1` (stereo in doubt) [Example 69, (S)-6-(((S)-3-fluoropyrrolidin-1-yl)methyl)-4-methyl-2-(1H-pyrazol-4-yl)-5,7-dihydro-3-oxa-1-thia-7-azaacenaphthylen-8(4H)-one] here?
A: < 1 nM

Q: Which IC50 does the source give for `CC1Cc2c(CN3CC[C@H](F)C3)[nH]c(=O)c3sc(-c4cn[nH]c4)c(c23)O1` (stereo in doubt) [Example 70, (R)-6-(((S)-3-fluoropyrrolidin-1-yl)methyl)-4-methyl-2-(1H-pyrazol-4-yl)-5,7-dihydro-3-oxa-1-thia-7-azaacenaphthylen-8(4H)-one] here?
A: < 1 nM

Q: For `Cc1[nH]c(=O)c2sc(-c3ccncc3)c3c2c1CCO3` [Example 2, 6-methyl-2-(pyridin-4-yl)-5,7-dihydro-3-oxa-1-thia-7-azaacenaphthylen-8(4H)-one], which IC50 is on record?
A: < 1 nM

Q: With `Cc1[nH]c(=O)c2sc(-c3cn[nH]c3)c3c2c1CCO3` [Example 3, 6-methyl-2-(1H-pyrazol-4-yl)-5,7-dihydro-3-oxa-1-thia-7-azaacenaphthylen-8(4H)-one] as the compound, how does the IC50 read?
A: 1 to 10 nM

Q: With `Cc1n[nH]cc1-c1sc2c(=O)[nH]c(C)c3c2c1OCC3` [Example 4, 6-methyl-2-(3-methyl-1H-pyrazol-4-yl)-5,7-dihydro-3-oxa-1-thia-7-azaacenaphthylen-8(4H)-one] as the compound, how does the IC50 read?
A: < 1 nM

Q: For `Cc1n[nH]cc1-c1sc2c(=O)[nH]c(C)c3c2c1OCCC3` [Example 6, 5-methyl-1-(3-methyl-1H-pyrazol-4-yl)-4,6,7,8-tetrahydro-3H-9-oxa-2-thia-4-azabenzo[cd]azulen-3-one], which IC50 is on record?
A: 1 to 10 nM

Q: How did the IC50 turn out when `Cc1[nH]c(=O)c2sc(-c3cn[nH]c3)c3c2c1CC(C)O3` (stereo not drawn) [Example 9, 4,6-dimethyl-2-(1H-pyrazol-4-yl)-5,7-dihydro-3-oxa-1-thia-7-azaacenaphthylen-8(4H)-one] was run?
A: < 1 nM

Q: Which IC50 does the source give for `O=c1[nH]c(CN2CC[C@H](O)C2)c2c3c(c(-c4ccncc4)sc13)OCCC2` [Example 10, (S)-5-((3-hydroxypyrrolidin-1-yl)methyl)-1-(pyridin-4-yl)-4,6,7,8-tetrahydro-3H-9-oxa-2-thia-4-azabenzo[cd]azulen-3-one] here?
A: 1 to 10 nM

Q: How did the IC50 turn out when `O=c1[nH]c(CN2CC[C@H](O)C2)c2c3c(c(-c4cn[nH]c4)sc13)OCCC2` [Example 11, (S)-5-((3-hydroxypyrrolidin-1-yl)methyl)-1-(1H-pyrazol-4-yl)-4,6,7,8-tetrahydro-3H-9-oxa-2-thia-4-azabenzo[cd]azulen-3-one] was run?
A: < 1 nM

Q: How did the IC50 turn out when `O=c1[nH]c(CN2CCC2)c2c3c(c(-c4ccncc4)sc13)OCCC2` [Example 12, 5-(azetidin-1-ylmethyl)-1-(pyridin-4-yl)-4,6,7,8-tetrahydro-3H-9-oxa-2-thia-4-azabenzo[cd]azulen-3-one] was run?
A: < 1 nM

Q: With `CC(C)(C)OC(=O)NCc1[nH]c(=O)c2sc(-c3ccncc3)c3c2c1CCCO3` [Example 14, tert-butyl ((3-oxo-1-(pyridin-4-yl)-4,6,7,8-tetrahydro-3H-9-oxa-2-thia-4-azabenzo[cd]azulen-5-yl)methyl)carbamate] as the compound, how does the IC50 read?
A: 1 to 10 nM

Q: With `NCc1[nH]c(=O)c2sc(-c3ccncc3)c3c2c1CCCO3` [Example 15, 5-(aminomethyl)-1-(pyridin-4-yl)-4,6,7,8-tetrahydro-3H-9-oxa-2-thia-4-azabenzo[cd]azulen-3-one;hydrochloride] as the compound, how does the IC50 read?
A: 1 to 10 nM

Q: Which IC50 does the source give for `COc1ccc(CNCc2[nH]c(=O)c3sc(-c4ccncc4)c4c3c2CCCO4)cc1` [Example 16, 5-(((4-methoxybenzyl)amino)methyl)-1-(pyridin-4-yl)-4,6,7,8-tetrahydro-3H-9-oxa-2-thia-4-azabenzo[cd]azulen-3-one] here?
A: ≥ 10 nM

Q: For `NCc1[nH]c(=O)c2sc(-c3cn[nH]c3)c3c2c1CCCO3` [Example 17, 7-(aminomethyl)-2-(1H-pyrazol-4-yl)-12-oxa-3-thia-6-azatricyclo[6.4.1.04,13]trideca-1,4(13),7-trien-5-one], which IC50 is on record?
A: 1 to 10 nM

Q: How did the IC50 turn out when `O=c1[nH]c(Cn2cccn2)c2c3c(c(-c4cn[nH]c4)sc13)OCCC2` [Example 18, 2-(1H-pyrazol-4-yl)-7-(pyrazol-1-ylmethyl)-12-oxa-3-thia-6-azatricyclo[6.4.1.04,13]trideca-1,4(13),7-trien-5-one] was run?
A: < 1 nM

Q: Which IC50 does the source give for `O=c1[nH]c(Cn2cccn2)c2c3c(c(-c4ccncn4)sc13)OCCC2` [Example 19, 7-(pyrazol-1-ylmethyl)-2-pyrimidin-4-yl-12-oxa-3-thia-6-azatricyclo[6.4.1.0^4,13]trideca-1,4(13),7-trien-5-one] here?
A: < 1 nM

Q: Which IC50 does the source give for `Cc1n[nH]cc1-c1sc2c(=O)[nH]c(Cn3cccn3)c3c2c1OCCC3` [Example 20, 2-(3-methyl-1H-pyrazol-4-yl)-7-(pyrazol-1-ylmethyl)-12-oxa-3-thia-6-azatricyclo[6.4.1.0^4,13]trideca-1,4(13),7-trien-5-one] here?
A: < 1 nM

Q: `O=c1[nH]c(Cn2cccn2)c2c3c(c(-c4ccncc4)sc13)OCCC2` [Example 21, 7-(pyrazol-1-ylmethyl)-2-(4-pyridyl)-12-oxa-3-thia-6-azatricyclo[6.4.1.0^4,13]trideca-1,4(13),7-trien-5-one] was tested. Which IC50 did it give?
A: < 1 nM

Q: How did the IC50 turn out when `O=c1[nH]c(Cn2ccnc2)c2c3c(c(-c4cn[nH]c4)sc13)OCCC2` [Example 22, 7-(imidazol-1-ylmethyl)-2-(1H-pyrazol-4-yl)-12-oxa-3-thia-6-azatricyclo[6.4.1.0^4,13]trideca-1,4(13),7-trien-5-one] was run?
A: < 1 nM

Q: How did the IC50 turn out when `O=c1[nH]c(CN2CCCCC2)c2c3c(c(-c4cn[nH]c4)sc13)OCCC2` [Example 23, 5-(piperidin-1-ylmethyl)-1-(1H-pyrazol-4-yl)-4,6,7,8-tetrahydro-3H-9-oxa-2-thia-4-azabenzo[cd]azulen-3-one] was run?
A: < 1 nM

Q: For `O=c1[nH]c(CN2CCC(F)(F)C2)c2c3c(c(-c4cn[nH]c4)sc13)OCCC2` [Example 25, 7-[(3,3-difluoropyrrolidin-1-yl)methyl]-2-(1H-pyrazol-4-yl)-12-oxa-13-thia-6-azatricyclo[6.4.1.0^4,13]trideca-1,4(13),7-trien-5-one], which IC50 is on record?
A: < 1 nM

Q: How did the IC50 turn out when `CC(C)(O)c1[nH]c(=O)c2sc(-c3ccncc3)c3c2c1CCCO3` [Example 29, 5-(2-hydroxypropan-2-yl)-1-(pyridin-4-yl)-4,6,7,8-tetrahydro-3H-9-oxa-2-thia-4-azabenzo[cd]azulen-3-one] was run?
A: < 1 nM

Q: `CC(NC1CCC1)c1[nH]c(=O)c2sc(-c3cn[nH]c3)c3c2c1CCCO3` (stereo not drawn) [Example 34] was tested. Which IC50 did it give?
A: < 1 nM

Q: Which IC50 does the source give for `O=C1CCCN1Cc1[nH]c(=O)c2sc(-c3cn[nH]c3)c3c2c1CCCO3` [Example 41, 5-((2-oxopyrrolidin-1-yl)methyl)-1-(1H-pyrazol-4-yl)-4,6,7,8-tetrahydro-3H-9-oxa-2-thia-4-azabenzo[cd]azulen-3-one] here?
A: < 1 nM

Q: For `Cc1[nH]c(=O)c2sc(-c3cn[nH]c3)c3c2c1CC(F)(F)CO3` [Example 43, 10,10-difluoro-7-methyl-2-(1H-pyrazol-4-yl)-12-oxa-3-thia-6-azatricyclo[6.4.1.0^4,13]trideca-1,4(13),7-trien-5-one], which IC50 is on record?
A: < 1 nM

Q: For `CC(C)(O)c1[nH]c(=O)c2sc(-c3cn[nH]c3)c3c2c1CC(F)(F)CO3` [Example 45, 10,10-difluoro-7-(1-hydroxy-1-methyl-ethyl)-2-(1H-pyrazol-4-yl)-12-oxa-3-thia-6-azatricyclo[6.4.1.0^4,13]trideca-1,4(13),7-trien-5-one], which IC50 is on record?
A: < 1 nM
